Test results reported in patent US11180462B2, “Microbiocidal oxadiazole derivatives” (SYNGENTA PARTICIPATIONS AG, priority 2015, dated 2021).

Experiments:
[1] = system: Puccinia recondita f. Sp. Tritici; test: Fungicidal activity against Puccinia recondita f. sp. tritici / wheat / leaf disc preventative (brown rust); type: in vivo; conditions: foliar, 200 ppm in the applied formulation, wheat leaf segments, preventative, compared to untreated control leaf disks, read-out: disease control
How it was run: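 Percent disease control relative to untreated check segments is scored once disease develops, 7 to 9 days after application. Wheat cv. Kanzler segments receive compound spray (200 ppm in formulation) one day before spore inoculation, then sit at 19° C. and 75% rh under 12 h light/12 h dark.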

[2] = system: Puccinia recondita f. Sp. Tritici; test: Fungicidal activity against Puccinia recondita f. sp. tritici / wheat / leaf disc curative (brown rust); type: in vivo; conditions: foliar, 24 h, 200 ppm in the applied formulation, wheat leaf segments, curative (applied 1 day after inoculation), compared to untreated control leaf disks, read-out: disease control
How it was run: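 Segments of wheat cv. Kanzler were laid on agar and inoculated with a spore suspension of the rust, then held in darkness at 19° C and 75% relative humidity. One day later the water-diluted formulated compound was applied, with incubation continued under a 12 h light/dark cycle.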

[3] = system: Phakopsora Pachyrhizi; test: Fungicidal activity against Phakopsora pachyrhizi / soybean / leaf disc preventative (Asian soybean rust); type: in vivo; conditions: foliar, 200 ppm in the applied formulation, soybean leaf disks, compared to untreated control leaf disks, read-out: disease control
How it was run: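 Scored 12 to 14 days post-application as percent control relative to untreated check discs, rust spores were sprayed under the disc one day after compound treatment. Incubation: 20°C, 75% rh, first 24–36 h in darkness, then 12 h daily light; discs kept on water agar.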

[4] = system: Glomerella lagenarium (Colletotrichum lagenarium); test: Fungicidal activity against Glomerella lagenarium (Colletotrichum lagenarium) liquid culture / cucumber / preventative (anthracnose); type: cell-based; conditions: Colletotrichum orbiculare; 20 ppm in the applied formulation; liquid culture (PDB), growth inhibition measured photometrically after 3 to 4 days; compared to untreated control; read-out: disease control
How it was run: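 Percent activity against the untreated check was derived from photometric growth measurements made 2 to 7 days after conidia in potato dextrose broth were combined with compound at 20 ppm. Cultures were kept dark at 24 °C and 96% humidity.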

CCC(C)N(Cc1ccc(-c2noc(C(F)(F)F)n2)cc1)C(C)=O (centres unmarked) [Compound 1.407, N-sec-butyl-N-[[4-[5-(trifluoromethyl)-1,2,4-oxadiazol-3-yl]phenyl]methyl]-acetamide]
≥ 80%: pest or weed control at 200 ppm [1] | pest or weed control at 200 ppm [2] | pest or weed control at 200 ppm [3] | inhibition of growth at 20 ppm [4]

CCC(C)N(Cc1ccc(-c2noc(C(F)(F)F)n2)cc1)C(=O)CCCOC (centres unmarked) [Compound 1.408, 4-methoxy-N-sec-butyl-N-[[4-[5-(trifluoromethyl)-1,2,4-oxadiazol-3-yl]phenyl]methyl]-butanamide]
≥ 80%: pest or weed control at 200 ppm [1] | pest or weed control at 200 ppm [2] | pest or weed control at 200 ppm [3] | inhibition of growth at 20 ppm [4]

CC(C)C(=O)N(Cc1ccc(-c2noc(C(F)(F)F)n2)cc1)CC1CCCO1 (centres unmarked) [Compound 1.412, 2-methyl-N-(tetrahydrofuran-2-ylmethyl)-N-[[4-[5-(trifluoromethyl)-1,2,4-oxadiazol-3-yl]phenyl]methyl]-propanamide]
≥ 80%: pest or weed control at 200 ppm [1] | pest or weed control at 200 ppm [2] | pest or weed control at 200 ppm [3] | inhibition of growth at 20 ppm [4]

CCC(=O)N(Cc1ccc(-c2noc(C(F)(F)F)n2)cc1)CC1CCCO1 (centres unmarked) [Compound 1.432, N-(tetrahydrofuran-2-ylmethyl)-N-[[4-[5-(trifluoromethyl)-1,2,4-oxadiazol-3-yl]phenyl]methyl]-propanamide]
≥ 80%: pest or weed control at 200 ppm [1] | pest or weed control at 200 ppm [2] | pest or weed control at 200 ppm [3] | inhibition of growth at 20 ppm [4]

CCC(=O)N(Cc1ccc(-c2noc(C(F)(F)F)n2)cc1)Cc1ccco1 [Compound 1.457, N-(2-furylmethyl)-N-[[4-[5-(trifluoromethyl)-1,2,4-oxadiazol-3-yl]phenyl]methyl]-propanamide]
≥ 80%: pest or weed control at 200 ppm [1] | pest or weed control at 200 ppm [2] | pest or weed control at 200 ppm [3] | inhibition of growth at 20 ppm [4]

CCC(C)C(=O)N(Cc1ccc(-c2noc(C(F)(F)F)n2)cc1)Cc1ccco1 (centres unmarked) [Compound 1.466]
≥ 80%: pest or weed control at 200 ppm [1] | pest or weed control at 200 ppm [2] | pest or weed control at 200 ppm [3] | inhibition of growth at 20 ppm [4]

COC(C)C(=O)N(Cc1ccc(-c2noc(C(F)(F)F)n2)cc1)Cc1ccco1 (centres unmarked) [Compound 1.472, N-(2-furylmethyl)-2-methoxy-N-[[4-[5-(trifluoromethyl)-1,2,4-oxadiazol-3-yl]phenyl]methyl]-propanamide]
≥ 80%: pest or weed control at 200 ppm [1] | pest or weed control at 200 ppm [2] | pest or weed control at 200 ppm [3] | inhibition of growth at 20 ppm [4]

C=CCN(Cc1ccc(-c2noc(C(F)(F)F)n2)cc1)C(=O)CCOC [Compound 1.476, N-allyl-3-methoxy-N-[[4-[5-(trifluoromethyl)-1,2,4-oxadiazol-3-yl]phenyl]methyl]-propanamide]
≥ 80%: pest or weed control at 200 ppm [1] | pest or weed control at 200 ppm [2] | pest or weed control at 200 ppm [3] | inhibition of growth at 20 ppm [4]

C=CCN(Cc1ccc(-c2noc(C(F)(F)F)n2)cc1)C(=O)CC [Compound 1.477, N-allyl-N-[[4-[5-(trifluoromethyl)-1,2,4-oxadiazol-3-yl]phenyl]methyl]-propanamide]
≥ 80%: pest or weed control at 200 ppm [1] | pest or weed control at 200 ppm [2] | pest or weed control at 200 ppm [3] | inhibition of growth at 20 ppm [4]

C=CCN(Cc1ccc(-c2noc(C(F)(F)F)n2)cc1)C(=O)C1CCC1 [Compound 1.478, N-allyl-N-[[4-[5-(trifluoromethyl)-1,2,4-oxadiazol-3-yl]phenyl]methyl]-cyclobutane-carboxamide]
≥ 80%: pest or weed control at 200 ppm [1] | pest or weed control at 200 ppm [2] | pest or weed control at 200 ppm [3] | inhibition of growth at 20 ppm [4]

C=CCN(Cc1ccc(-c2noc(C(F)(F)F)n2)cc1)C(=O)COC [Compound 1.479, N-allyl-2-methoxy-N-[[4-[5-(trifluoromethyl)-1,2,4-oxadiazol-3-yl]phenyl]methyl]-acetamide]
≥ 80%: pest or weed control at 200 ppm [1] | pest or weed control at 200 ppm [2] | pest or weed control at 200 ppm [3] | inhibition of growth at 20 ppm [4]
